Assay results taken from publication PMC12203697, “Bioactive constituents from the edible seaweed Halymenia hawaiiana (Rhodophyta)” (Pharmaceutical Biology, 2025).
Converted amounts (≈) assume the structure as drawn. Structures can show the parent of a compound that is named as a salt. Where two headings read alike, the source gives them in different places. Values belong to the compound of their own block, whether it stands above or below them.

How the values were obtained:
MRSA POB2 = assay: Antibacterial MIC, broth microdilution with resazurin; type: cell-based, Staphylococcus aureus
From the text: (§1) Methicillin-resistant Staphylococcus aureus (MRSA), methicillin-susceptible S. aureus (MSSA), and Gram-negative clinical isolates of bacteria [Escherichia coli (9637) and Serratia marcescens ATCC 13880] were used for this study. […] MSSA HBP10, MSSA LUU7, MSSA R113, S. aureus ONE9, and MSSA POB2 were isolated in Hawaiʻi (Gerken et al. [2021]). Mueller Hinton Broth (MHB, GTIN:00382902979630, Becton, Dickinson and Company, Franklin Lakes, NJ, USA) and Mueller Hinton Agar (MHA, GTIN:00382902252504, Becton, Dickinson and Company, Franklin Lakes, NJ, USA,) were used for bacterial inoculation. MRSA was a pathogen strain causing hospital-acquired infections in 1982. This strain easily acquires resistance to antibiotics, such as vancomycin. MSSA strains isolated from the Island of Hawaiʻi included: Honolʻii Beach Park (HBP10) carry the genes erm(C), aph(3′)-III, and mecA, which provide resistance to macrolide, aminoglycoside, and beta-lactam antibiotics, respectively; Wailuku River (LUU7) which contains the blaZ gene (beta-lactam resistance) (Gerken et al. [2021]). Richardson’s Beach Park (R113) and Onekahakaha (ONE9) which is known for its virulence factors (hlgA, hlgB, hlgC, lukD, and lukE).
(§2) The minimum inhibitory concentrations (MICs) were determined using a two-fold serial dilution method with MHB following the recommendations of the Clinical and Laboratory Standards Institute (CLSI [2012]; Elshikh et al. [2016]). In brief, serial two-fold dilutions of the samples in DMSO were mixed with MHB in a 96-well microplate. Then, 50 µL of bacteria suspension was added to each well, resulting in a final concentration of 1 × 10^4 colony-forming units/well. The plates were incubated at 35–37 °C for 18–24 hr. After incubation, 10 µL of 0.18% resazurin (Cat. No. R7017, Sigma-Aldrich, USA) was added to each well (Elshikh et al. [2016]). The MIC was assessed within 2–3 hr after the addition of resazurin. All antimicrobial assays were performed in triplicate, using vancomycin (Cat. No. SBR00001, Sigma-Aldrich, USA) and gentamicin (Cat. No. G1397, Sigma-Aldrich, USA) as standard controls.

MRSA HBP10 = assay: as above; type: cell-based, Staphylococcus aureus
From the text: as §1, §2

S. marcescent = assay: as above; type: cell-based, Serratia marcescens; settings: Gram-negative
From the text: as §1, §2

[1] = Ferric-reducing antioxidant power (FRAP) assay
Description: The FRAP assay was used to evaluate antioxidant activity based on the ability of the sample to reduce Fe^3+-TPTZ (2,4,6-tris(2-pyridyl)-S-triazine) to Fe^2+-TPTZ (Benzie and Strain [1996]). This reduction results in a color change from colorless to blue. The absorbance was measured at 593 nm using a Microplate Reader (BioTek ELx800 Instruments Inc. Winooski, Vermont, USA) with the Gen 5 software for FRAP value calculations. A ferrous sulfate heptahydrate (FeSO4 · 7H2O) (Cat. No. 215422, Sigma-Aldrich, USA) standard curve, ranging from 1000 µM to 50 µM, was prepared for the assay. The FRAP reagent consists of 300 mM sodium acetate buffer (pH 3.6) (Cat. No. 90358, Sigma-Aldrich, USA), 10 mM TPTZ solution (Cat. No. T1253, Sigma-Aldrich, USA), and 20 mM ferric (III) chloride hexahydrate (FeCl3 · 6H2O) (Cat. No. 236489, Sigma-Aldrich, USA) in a 10:1:1 ratio, respectively, and heated to 37 °C for ten minutes before use. A blank was measured at 593 nm with 150 µL FRAP reagent added to each well of a 96-well microtiter plate. Samples (20 µL of each sample) (1, 0.5, 0.25 mg/mL) and ascorbic acid (Sigma-Aldrich, Cat. No. A4403) positive control (1 mg/mL) were added in triplicates. Reducing capacity was expressed by FRAP values in an µM FeSO4/µg sample unit.

E. coli = assay: Antibacterial MIC, broth microdilution with resazurin; type: cell-based; settings: Escherichia coli, Gram-negative
From the text: as §1, §2

[2] = test system: LPS-induced nitric oxide (NO) production in RAW 264.7 cells; assay: Inhibition of NO generation in LPS-induced RAW 264.7 cells (Griess); type: cell-based, murine; settings: Mus musculus, RAW264.7; RAW 264.7 cells, LPS 1 μg/mL, adjusted for cell viability; read-out: IC50, inhibition of LPS-induced NO production
Description: The nitrite concentration in the culture medium was measured to indicate nitric oxide (NO) production as previously described (Min et al. [2009]). The murine macrophage RAW 264.7 cell line was obtained from ATCC, Manassas, VA, USA, and maintained in Dulbecco’s modified Eagle’s medium supplemented with 10% heat-inactivated FBS (Cat. No. A5670801, Gibco BRL Co, Grand Island, NY, USA), penicillin G (100 units/mL) (Cat. No. P7794, Sigma-Aldrich, USA), streptomycin (100 µg/mL) (Cat. No. S9137, Sigma-Aldrich, USA), and L-glutamine (2 mM) (Cat. No. 25030081, Gibco BRL Co, Grand Island, NY, USA). In brief, RAW 264.7 cells were seeded at a density of 4 × 10^4 cells/well in phenol red-free media (Cat. No. 11835030, Gibco, USA) in a 96-well plate, and incubated in a humidified incubator with 5% CO2 at 37 °C for 24 hr. […] The concentration of nitric oxide production was assessed using the Griess reagent, which consists of a 1:1 (v/v) mixture of 1% sulfanilamide (Cat No. A13001, Alfa Aesar, Massachusetts, USA) in H3PO4 and N-(1-naphthyl)ethylenediamine dihydrochloride (Cat. No. 102397, MP Biomedicals, USA). Absorbance was recorded with a microplate reader (SynergyMx, BioTeK, Winooski, VT, USA) at 540 nm. A standard curve was created using sodium nitrite (1–100 μM) (Cat. No. 44227, Alfa Aesar, Massachusetts, USA). A sulforhodamine B (SRB) assay was employed to assess the cellular viability of the samples with RAW 264.7 cells under a similar experimental setup. The final % inhibition of NO production was adjusted based on cell viability.

S. aureus CART817 = assay: Antibacterial MIC, broth microdilution with resazurin; type: cell-based; settings: Staphylococcus aureus, CART817
Description: as §2

S. aureus NEWMAN = assay: as above; type: cell-based, Staphylococcus aureus; settings: Staphylococcus aureus, NEWMAN
From the text: as §1, §2

MRSA USA300 = assay: as above; type: cell-based; settings: Staphylococcus aureus
From the text: as §1, §2

MSSA R113 = assay: as above; type: cell-based; settings: Staphylococcus aureus, MSSA
From the text: as §1, §2

S. aureus 8325-4 = assay: as above; type: cell-based; settings: Staphylococcus aureus, 83254
From the text: as §1, §2

S. aureus ONE9 = assay: as above; type: cell-based; settings: Staphylococcus aureus, ONE9
From the text: as §1, §2

MSSA LUU7 = assay: as above; type: cell-based; settings: Staphylococcus aureus, MSSA
From the text: as §1, §2

[3] = test system: A549 human lung carcinoma epithelial cells; assay: SRB cytotoxicity assay, A549 cells; settings: read-out: IC50, cytotoxicity against A549 cells; SRB assay, 72 h exposure
Description: After incubation, cells were fixed with trichloroacetic acid (Cat. No. T4885, Sigma-Aldrich, USA), stained with SRB (Cat. No. S9012, Sigma-Aldrich, USA), and the absorbance was measured at 515 nm. Percent cell death was calculated using the following equation: % Cell death=(ODc−OD0)‐(ODs−OD0)/(ODc−OD0)×100
OD0 = Optical density of cells before treatment (baseline reading).
ODC = Optical density of untreated control cells after 72 h.
ODS = Optical density of cells treated with the test sample after 72 h.
Non-linear regression analysis was performed using GraphPad Prism to calculate the IC50 value. This value reflects the concentration needed to inhibit cell growth by 50%.
All data are presented as mean ± standard error of the mean (SEM) and were collected from three separate experiments. Statistical analyses were conducted using Student’s t-test or ANOVA, followed by Tukey’s multiple comparisons test. Significance is indicated by *p < 0.05, **p < 0.01, and ***p < 0.001.

Compound: [H]/N=C(/NC)NCCC[C@H](N)C(=O)O [L-NMMA, L-N-Monomethyl Arginine citrate, reference compound]
IC50 [2]: 43.5 ± 1.8 µM

Compound: CN[C@H](CC(C)C)C(=O)N[C@H]1C(=O)N[C@@H](CC(N)=O)C(=O)N[C@H]2C(=O)N[C@H]3C(=O)N[C@H](C(=O)N[C@H](C(=O)O)c4cc(O)cc(O)c4-c4cc3ccc4O)[C@H](O)c3ccc(c(Cl)c3)Oc3cc2cc(c3O[C@@H]2O[C@H](CO)[C@@H](O)[C@H](O)[C@H]2O[C@H]2C[C@](C)(N)[C@H](O)[C@H](C)O2)Oc2ccc(cc2Cl)[C@H]1O [Vancomycin, vancomycin, reference compound]
MIC (S. aureus CART817): 1 µg/mL (≈ 0.69 µM)
MIC (MRSA POB2; Staphylococcus aureus, MRSA): 0.5 µg/mL (≈ 0.345 µM)
MIC (MRSA HBP10; Staphylococcus aureus, MRSA): 1 µg/mL (≈ 0.69 µM)
MIC (S. aureus NEWMAN): 0.5 µg/mL (≈ 0.345 µM)
MIC (MRSA USA300): 0.5 µg/mL (≈ 0.345 µM)
MIC (MSSA R113): 0.5 µg/mL (≈ 0.345 µM)
MIC (S. aureus 8325-4): 0.5 µg/mL (≈ 0.345 µM)
MIC (S. aureus ONE9): 0.5 µg/mL (≈ 0.345 µM)
MIC (MSSA LUU7): 0.5 µg/mL (≈ 0.345 µM)

Compound: N.N.[Cl][Pt][Cl] [cisplatin, Cisplatin, reference compound]
IC50 [3]: 4.2 ± 0.3 µM

Second part, led by results:

MIC (MRSA POB2; MRSA POB2, Gram-positive): Inactive
MIC (MRSA HBP10; MRSA HBP10, Gram-positive): Inactive
MIC (S. marcescent): Inactive
Compound: CCCCCCCCC1CC1CCCCCCCC(=O)O (stereo not drawn) [Compound 7, dihydrosterculic acid]
FRAP ([1]; FeSO4 standard curve): 230.06 µM
FRAP ([1]; µM FeSO4/µg sample): 2.88 ± 0.03 µM/µg

MIC (MRSA POB2; MRSA POB2, Gram-positive): Inactive
MIC (MRSA HBP10; MRSA HBP10, Gram-positive): Inactive
MIC (S. marcescent): Inactive
Compound: CCCCCCCC/C=C/CCCCCCC(O)C(=O)OC (stereo not drawn) [Compound 8, methyl (9E)-2-hydroxy-9-octadecenoate]

MIC (S. marcescent; Serratia marcescens, read-out: MIC): 0.25 µg/mL (≈ 0.523 µM)
MIC (E. coli): 0.25 µg/mL (≈ 0.523 µM)
Compound: CNC(C)C1CCC(N)C(OC2C(N)CC(N)C(OC3OCC(C)(O)C(NC)C3O)C2O)O1 (stereo not drawn) [Gentamicin, gentamicin, reference compound]
